These results are taken from ChEMBL document CHEMBL1201862, “PubChem BioAssay data set” (2004).

Experiment [1] has as its target Intestinal-type alkaline phosphatase (Mus musculus, UniProt P24822). Briefly: PubChem AID 488785. It is filed as functional.
Experiment [2] addresses Intestinal-type alkaline phosphatase (Homo sapiens, UniProt P09923). Briefly: inhibition of human intestinal alkaline phosphatase – biochemical, dose response (AID 488876). It is filed as functional.
In experiment [3] the target is T1, Alkaline phosphatase, tissue-nonspecific isozyme (Homo sapiens, UniProt P05186).
T1 sequence (P05186 whole entry): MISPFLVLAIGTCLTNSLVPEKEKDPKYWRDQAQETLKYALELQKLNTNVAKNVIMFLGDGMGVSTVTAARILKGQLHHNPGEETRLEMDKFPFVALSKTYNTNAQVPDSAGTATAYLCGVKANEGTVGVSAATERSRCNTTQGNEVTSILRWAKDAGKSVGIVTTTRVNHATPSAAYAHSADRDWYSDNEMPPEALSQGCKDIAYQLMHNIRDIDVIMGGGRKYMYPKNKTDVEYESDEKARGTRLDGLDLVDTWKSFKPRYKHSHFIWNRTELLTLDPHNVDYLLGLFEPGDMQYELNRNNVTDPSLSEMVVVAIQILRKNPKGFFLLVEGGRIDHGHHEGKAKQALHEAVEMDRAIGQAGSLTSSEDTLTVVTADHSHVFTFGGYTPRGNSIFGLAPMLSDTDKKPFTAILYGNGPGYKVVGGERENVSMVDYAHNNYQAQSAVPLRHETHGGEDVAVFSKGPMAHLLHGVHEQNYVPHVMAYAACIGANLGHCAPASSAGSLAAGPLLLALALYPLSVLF
Briefly: TNAP enzyme inhibition by screening hits, dose response, selectivity assay for mouse IAP inhibitor project, biochemical, human TNAP, uHTS hits (AID 488906). Format: functional.

Experiment [4] can be described thus: cytotoxicity toward NIH3T3 fibroblasts, dose response, counter-screen, cell-based, ATP luminescence, mouse fibroblasts (AID 2010).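 Note: cells exposed to compound for about 90 hours before reading.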 It is filed as functional.
Experiment [5] is described as follows: inhibitors of intracellular T. cruzi replication, confirmation, NIH3T3 host cells, beta-gal luminescence (AID 2044).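 Note: intracellular parasites grown in NIH/3T3 mouse fibroblasts as host cells; luminescent beta-galactosidase reporter signal from transgenic T. cruzi replicating inside host cells; inhibitors lower the luminescence signal.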 It is filed as functional, cell-based.
The target in experiment [6] is Melanin-concentrating hormone receptor 1 (Homo sapiens, UniProt Q99705). Briefly: Fluorescence-based counterscreen for antagonists of the G-protein coupled receptor 7 (GPR7): cell-based high throughput dose response assay to identify antagonists of the melanin-concentrating hormone receptor 1 (MCHR1). Format: functional.
Sequence of Melanin-concentrating hormone receptor 1 (Q99705 whole entry): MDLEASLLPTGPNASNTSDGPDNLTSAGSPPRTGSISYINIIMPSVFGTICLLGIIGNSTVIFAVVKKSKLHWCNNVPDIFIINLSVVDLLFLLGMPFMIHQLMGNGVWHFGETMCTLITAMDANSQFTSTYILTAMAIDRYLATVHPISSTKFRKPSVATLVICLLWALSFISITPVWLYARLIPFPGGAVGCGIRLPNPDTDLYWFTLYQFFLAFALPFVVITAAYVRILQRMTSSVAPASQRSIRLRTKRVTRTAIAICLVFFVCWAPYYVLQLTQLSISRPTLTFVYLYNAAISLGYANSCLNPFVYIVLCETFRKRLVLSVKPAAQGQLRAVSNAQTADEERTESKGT
Experiment [7] has as its target T2, Delta-type opioid receptor (Homo sapiens, UniProt P41143). As to the kind of experiment: DOR antagonists, SAR follow-up, image-based (AID 2357). It is filed as functional.
For experiment [8], the target named is T2, Delta-type opioid receptor. As to the kind of experiment: DOR agonists, SAR follow-up, image-based (AID 2370). Format: functional.
Experiment [9] addresses T3, Kappa-type opioid receptor (Homo sapiens, UniProt P41145). As to the kind of experiment: KOR antagonists by imaging, SAR follow-up, image-based (AID 2348). Format: functional.
Experiment [10] has as its target T4, Mu-type opioid receptor (Homo sapiens, UniProt P35372). As to the kind of experiment: MOR antagonists, SAR follow-up, image-based (AID 2420).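 Note: compounds added before stimulation of receptor with agonist DAMGO.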 It is filed as functional.
Experiment [11] deals with T3, Kappa-type opioid receptor. Briefly: SAR analysis of small molecule agonists of the kappa opioid receptor via a luminescent beta-arrestin assay. [Related pubchem assays (depositor defined):AID1777, AID1786, AID1966, AID2133, AID2136, AID2348, AID2352, AID2357, AID2359, AID2370, AID2420, AID2478, AID2491, AID2492, AID2493, AID2497, AID2498, AID2500, AID449737, AID488822, AID488842]. Format: functional.

In experiment [12] the target is T4, Mu-type opioid receptor. As to the kind of experiment: MOR agonists by imaging, SAR follow-up, image-based (AID 2352). Format: functional.
In experiment [13] the target is T5, Neuropeptides B/W receptor type 1 (Homo sapiens, UniProt P48145).
T5 sequence (P48145 whole entry): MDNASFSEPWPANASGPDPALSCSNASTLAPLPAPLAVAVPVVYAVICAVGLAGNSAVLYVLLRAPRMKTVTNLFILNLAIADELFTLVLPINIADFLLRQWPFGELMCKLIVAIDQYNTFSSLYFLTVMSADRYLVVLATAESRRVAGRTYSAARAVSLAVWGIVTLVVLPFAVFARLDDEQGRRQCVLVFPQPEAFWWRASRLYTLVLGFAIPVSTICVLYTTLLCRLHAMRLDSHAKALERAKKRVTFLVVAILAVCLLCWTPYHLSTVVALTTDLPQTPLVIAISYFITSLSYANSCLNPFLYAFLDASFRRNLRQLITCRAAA
As to the kind of experiment: Fluorescence-based dose response cell-based high throughput screening assay to identify antagonists of the G-protein coupled receptor 7 (GPR7). [Related pubchem assays: 1952 (Screening assay (GPR7 antagonists).), 1880 (Summary AID.)]. It is filed as functional.

In experiment [14] the target is T3, Kappa-type opioid receptor. Briefly: KOR agonist analogs, imaging readout, SAR follow-up, image-based (AID 2359). It is filed as functional.
In experiment [15] the target is T6, E3 ubiquitin-protein ligase XIAP (Homo sapiens, UniProt P98170). Briefly: SAR analysis of Antagonists of XIAP-Bir3 domain of IAP-family anti-apoptotic proteins. [Related pubchem assays (depositor defined):AID1018, AID1449, AID1513, AID1514, AID1638].
T6 sequence (P98170 whole entry, the tested form may be a part): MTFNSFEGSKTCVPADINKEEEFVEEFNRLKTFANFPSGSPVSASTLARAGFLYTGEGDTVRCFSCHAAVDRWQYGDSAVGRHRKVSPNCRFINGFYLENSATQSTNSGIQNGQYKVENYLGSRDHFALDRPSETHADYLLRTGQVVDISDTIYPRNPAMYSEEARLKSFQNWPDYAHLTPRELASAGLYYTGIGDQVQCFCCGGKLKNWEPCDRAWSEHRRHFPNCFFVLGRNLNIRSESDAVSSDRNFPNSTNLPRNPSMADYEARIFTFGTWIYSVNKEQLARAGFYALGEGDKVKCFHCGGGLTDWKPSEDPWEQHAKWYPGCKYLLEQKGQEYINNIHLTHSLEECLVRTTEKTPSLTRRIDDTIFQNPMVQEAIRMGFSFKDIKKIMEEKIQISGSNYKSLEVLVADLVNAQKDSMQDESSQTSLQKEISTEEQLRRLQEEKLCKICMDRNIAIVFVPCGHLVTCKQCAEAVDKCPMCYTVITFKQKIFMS
Experiment [16] has as its target T6, E3 ubiquitin-protein ligase XIAP. Briefly: SAR analysis of Antagonists of IAP-family anti-apoptotic proteins. [Related pubchem assays (depositor defined):AID1018, AID1449, AID1513, AID1514, AID1638].

As usually defined, the IC50 is the concentration that inhibits the measured activity by half. Usually EC50 stands for the concentration giving half of the maximal effect.

Calls of active or inactive are those of the source.

T3 sequence (P41145 whole entry): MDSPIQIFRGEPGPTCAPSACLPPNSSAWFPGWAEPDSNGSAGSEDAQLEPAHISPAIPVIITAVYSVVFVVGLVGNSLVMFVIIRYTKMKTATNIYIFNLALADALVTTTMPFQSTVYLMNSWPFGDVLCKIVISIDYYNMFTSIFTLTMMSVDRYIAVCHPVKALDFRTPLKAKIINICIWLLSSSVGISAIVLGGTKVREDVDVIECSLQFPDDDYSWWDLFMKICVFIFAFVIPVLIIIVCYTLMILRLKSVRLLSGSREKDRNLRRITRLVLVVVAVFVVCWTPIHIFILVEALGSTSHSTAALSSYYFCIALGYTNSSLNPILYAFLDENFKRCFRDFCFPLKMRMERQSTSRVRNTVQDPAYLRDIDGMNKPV
T4 sequence (P35372 whole entry): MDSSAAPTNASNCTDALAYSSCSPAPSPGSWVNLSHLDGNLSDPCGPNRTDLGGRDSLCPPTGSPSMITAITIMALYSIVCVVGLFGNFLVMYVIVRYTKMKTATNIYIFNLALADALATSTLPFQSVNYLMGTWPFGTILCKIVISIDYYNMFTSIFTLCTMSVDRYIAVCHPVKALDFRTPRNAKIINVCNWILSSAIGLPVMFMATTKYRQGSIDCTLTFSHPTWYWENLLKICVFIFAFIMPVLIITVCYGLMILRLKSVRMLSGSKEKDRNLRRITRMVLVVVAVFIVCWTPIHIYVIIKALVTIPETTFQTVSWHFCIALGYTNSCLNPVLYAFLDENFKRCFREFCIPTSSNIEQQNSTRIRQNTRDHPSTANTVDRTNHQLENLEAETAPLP
T2 sequence (P41143 whole entry): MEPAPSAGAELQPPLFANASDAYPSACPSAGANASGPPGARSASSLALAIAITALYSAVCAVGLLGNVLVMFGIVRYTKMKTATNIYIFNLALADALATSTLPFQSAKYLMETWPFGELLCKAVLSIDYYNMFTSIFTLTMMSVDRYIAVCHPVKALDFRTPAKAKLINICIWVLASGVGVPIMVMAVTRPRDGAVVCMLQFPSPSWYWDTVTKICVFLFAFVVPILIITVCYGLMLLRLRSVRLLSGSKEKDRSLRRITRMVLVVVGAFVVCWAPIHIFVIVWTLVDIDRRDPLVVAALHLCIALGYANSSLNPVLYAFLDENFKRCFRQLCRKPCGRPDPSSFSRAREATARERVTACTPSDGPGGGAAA
Sequence of Intestinal-type alkaline phosphatase (Homo sapiens, UniProt P09923) (P09923 whole entry): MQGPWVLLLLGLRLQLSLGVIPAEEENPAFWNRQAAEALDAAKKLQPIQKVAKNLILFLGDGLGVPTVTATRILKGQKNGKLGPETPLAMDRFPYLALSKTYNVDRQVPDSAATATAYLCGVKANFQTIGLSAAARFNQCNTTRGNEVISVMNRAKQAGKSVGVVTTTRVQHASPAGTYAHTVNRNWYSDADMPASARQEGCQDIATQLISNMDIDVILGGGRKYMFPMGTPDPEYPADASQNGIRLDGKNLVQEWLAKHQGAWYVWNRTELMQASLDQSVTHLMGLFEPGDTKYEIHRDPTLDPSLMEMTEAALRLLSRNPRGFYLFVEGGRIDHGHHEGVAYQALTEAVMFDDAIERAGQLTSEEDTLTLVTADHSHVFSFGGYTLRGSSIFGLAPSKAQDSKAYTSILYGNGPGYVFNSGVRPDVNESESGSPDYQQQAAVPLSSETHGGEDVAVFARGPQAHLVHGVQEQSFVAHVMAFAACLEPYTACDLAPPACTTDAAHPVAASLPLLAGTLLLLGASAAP
Sequence of Intestinal-type alkaline phosphatase (Mus musculus, UniProt P24822) (P24822 whole entry): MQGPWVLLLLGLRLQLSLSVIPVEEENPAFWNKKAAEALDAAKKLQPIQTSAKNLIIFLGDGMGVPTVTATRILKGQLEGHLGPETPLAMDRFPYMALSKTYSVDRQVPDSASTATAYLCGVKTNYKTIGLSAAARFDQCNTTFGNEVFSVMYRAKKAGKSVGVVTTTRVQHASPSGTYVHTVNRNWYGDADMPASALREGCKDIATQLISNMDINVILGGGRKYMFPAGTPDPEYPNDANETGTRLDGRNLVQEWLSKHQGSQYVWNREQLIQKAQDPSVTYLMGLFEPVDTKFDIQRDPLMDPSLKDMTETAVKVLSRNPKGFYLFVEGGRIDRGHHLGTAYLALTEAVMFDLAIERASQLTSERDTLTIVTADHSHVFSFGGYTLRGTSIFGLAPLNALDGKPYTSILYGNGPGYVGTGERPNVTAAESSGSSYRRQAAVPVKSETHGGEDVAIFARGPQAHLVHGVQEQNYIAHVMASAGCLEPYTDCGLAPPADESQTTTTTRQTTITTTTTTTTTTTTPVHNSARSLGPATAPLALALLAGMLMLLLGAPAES

On to `Cc1nn(C(C)C)c(C)c1CN1CCC(C(=O)Nc2cccc(-c3cccc(F)c3)c2)CC1`, for which the IC50 was 7.53 µM (active) in experiment [1], 12 µM (active) in experiment [2] and 53 µM (active) in [3]. Besides, the EC50 was 30.4 µM (active) in [4] and 1.15 µM (active) in experiment [5].

Regarding `O=C(c1cnccn1)N(Cc1ccco1)C1(C(=O)NC2CCCC2)CCCCC1`, the half-inhibitory concentration (IC50) was > 43.8 µM (not active) in [6]; > 32 µM (inactive) in experiment [7]; > 32 µM (inactive) in experiment [9]; > 32 µM (inactive) on Mu-type opioid receptor [10]; > 43.8 µM (not active) in experiment [13]. Besides, the EC50 in [8] was > 32 µM (inactive); in experiment [11], > 10 µM (inactive); at Mu-type opioid receptor [12], > 32 µM (inactive); in [14], > 32 µM (inactive).

`CN[C@@H](C)C(=O)N[C@H](C(=O)N1CCC[C@H]1C(=O)NNc1ccccc1)C(C)C`: the IC50 was 2.9 µM (active) in [15] and 1.3 µM (active) in [16].
